The text below walks through data of publication PMC3009975, “Blocking spinal CCR2 with AZ889 reversed hyperalgesia in a model of neuropathic pain” (Molecular Pain, 2010).

“Also recorded” adds a separate entry of the source. Like-named read-outs stand apart in the source and are kept apart here.

In general, EC50 refers to the concentration that produces a half-maximal response.

The test system of series [1] is DRG neurons from CCI rats. In words: Calcium imaging of cultured DRG neurons from CCI rats. To be noted: 1 μM, before (5 min), during and after 100 nM CCL2; n = 6 cells. Format: cell-based, rat.
Protocol: Since rCCL2 can activate both CCR2 and CCR5 [25] we used AZ889 to test if a selective CCR2 antagonist can prevent CCL2-induced calcium signalling in native tissue.
Ganglia from L4 to L6 dorsal roots were harvested from CCI animals, 4 to 19 days post-surgery. The tissue was enzymatically digested at 37°C for 90 min with collagenase-A (2 mg/mL) and papain (1 mg/mL) in DMEM. Cells were plated on Poly-D-Lysine coated coverslips and maintained in F12 supplemented with 10% heat inactivated horse serum, 2 mM glutamine-penicillin-streptomycin, and 2 ng/ml NGF and GDNF for 1-3 days in a humidified chamber (5% CO2/95% O2).
Series [2] addresses T1, rat CCR2 receptor (Rattus norvegicus, UniProt O55193).
T1 construct: expressed in transfected cells; host or cells: HEK293s cells co-expressing chimeric Gαqi5
T1 sequence (O55193 1-373): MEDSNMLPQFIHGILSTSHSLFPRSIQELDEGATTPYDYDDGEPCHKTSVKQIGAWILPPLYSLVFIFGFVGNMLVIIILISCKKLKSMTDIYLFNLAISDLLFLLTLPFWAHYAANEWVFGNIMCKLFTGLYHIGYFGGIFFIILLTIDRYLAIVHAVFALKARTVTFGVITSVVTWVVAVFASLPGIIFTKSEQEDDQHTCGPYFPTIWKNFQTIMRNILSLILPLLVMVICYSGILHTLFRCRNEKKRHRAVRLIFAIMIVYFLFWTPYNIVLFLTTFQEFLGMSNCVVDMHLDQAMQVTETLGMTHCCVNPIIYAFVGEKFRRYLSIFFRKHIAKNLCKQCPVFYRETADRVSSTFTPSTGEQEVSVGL
In words: Calcium flux assay (FLIPR) in HEK293 s cells (Gαqi5) stably expressing rat CCR2. Format: cell-based. To be noted: read-out: EC50, calcium activation of HEK293 s cells expressing CCR2. An excerpt: Chemokine receptors are known to modulate intracellular calcium concentration. A library of designed molecules was screened on HEK cells expressing the receptor using a calcium flux-assay (FLIPR). Compounds capable of blocking the intracellular calcium rise evoked by mouse CCL2 in HEK293 s cells (Gαqi5) stably expressing the rat CCR2 receptor were selected and further profiled by performing dose-response curves. Mouse and rat CCL2 (mCCL2 and rCCL2) purchased from R&D Systems gave similar median effective concentrations (EC50) values (Additional file 1 Figure S1) and mCCL2 was selected to conduct the screening assay. Cells were pre-incubated (30 min) with a given concentration of compound (from 0.04 to 1 μM) and CCR2 calcium-mediated activation was evoked by the addition of mCCL2 (EC50 concentration, 1 nM).
Briefly, HEK293 s cells stably expressing rat CCR2 and the chimeric Gαqi5 were plated (15000 cells per well) in 384-well assay plates in Dulbecco's modified Eagle's medium (DMEM) for 24 h in a humidified atmosphere at 37°C in 5% CO2. After removing the medium by inversion, cells were loaded with the calcium-sensitive dye Fluo4-AM (Molecular Devices), 15 μL per well of 4 μM FLUO-4/Pluronic acid mix (1 mM) in buffer and incubated at 37°C for 1 h in a humidified chamber (5% CO2/95% air). Cells were washed 4 times in Hanks' balanced salt solution buffer supplemented with 20 mM HEPES + 0.25% bovine serum albumin at pH 7.4. Different concentrations of the test compound (from 10 mM stock in dimethyl sulfoxide) were added in buffer for 30 min at 37°C in 5% CO2. In this assay, mouse CCL2 was added at 1 nM in buffer (EC50 value in Figure 1) and mobilization of intracellular calcium was measured online (FLIPR, Molecular Devices). The EC50 and IC50 values were determined using 8-point concentration-response curve using non-linear regression and a four-parameter logistic model (Prism 4.03 software, GraphPad Software Inc).
On the technique in general: Calcium flux is commonly read through the fluorescence of an indicator in the cells.

In series [3] the test system is DRG neurons from CCI rats. Description: Whole-cell patch clamp, evoked action potential firing in DRG neurons from CCI rats. Format: cell-based, rat.
Protocol: To assess whether DRG neurons from rats with chronic constriction injury (CCI) were also CCL2-sensitive, we performed whole-cell patch clamp recordings to evaluate the effect of the chemokine on cell excitability. A suprathreshold (500 ms) depolarizing current step was used to evoke a stable baseline of action potentials (Figure 2A) in the absence or presence of locally applied CCL2 (1min) onto the recorded cell.
Ganglia from L4 to L6 dorsal roots were harvested from CCI animals, 4 to 19 days post-surgery. The tissue was enzymatically digested at 37°C for 90 min with collagenase-A (2 mg/mL) and papain (1 mg/mL) in DMEM. […]
DRG cells maintained for 1-3 days in culture were transferred to a recording chamber fixed to the stage of an inverted microscope (Olympus) and constantly perfused (0.5 mL/min) with Dulbecco's phosphate buffered saline (PBS), a standard extracellular bathing solution containing (in mM): 137 NaCl; 8.1 Na2HPO4•7H2O; 2.68 KCl; 1.47 KH2PO4; 0.9 CaCl2; 0.5 MgCl2•6H2O at pH 7 and 275 to 290 mOsm. […] Signals were filtered at 1 kHz, digitized at 10 kHz (Digidata, Molecular Devices) and captured and analyzed off-line (Pclamp9 software, Molecular Devices). Action potentials were recorded with borosilicate glass patch pipettes (2-6 MΩ) filled with solution containing (in mM): 110 K-gluconate, 20 KCl, 10 EGTA, 8 NaCl, 10 HEPES, 1 MgCl2 and 4 Mg-ATP at pH 7.3. […]
Series [4] concerns DRG cells harvested from naive rats. Description: Calcium imaging of DRG cells harvested from naive rats. In kind it is cell-based, rat. As to conditions: data not shown. An excerpt: An increased number of action potentials in DRG neurons following CCR2 activation is an intriguing observation since CCR2 is a pertussis toxin (PTX)-sensitive GPCR coupled to inhibitory Gi and/or […]. Additionally, CCR2 activation evokes excitatory Ca^2+ rises in DRG cells but the underlying mechanism is still poorly understood. To gain further insight into CCR2-mediated Ca^2+ mobilization, we next evaluated the sensitivity of both neuronal and non-neuronal cell types in the DRG by recording changes in intracellular calcium evoked by CCL2. […] In mixed-cell cultures from CCI rats, CCL2 evoked an intracellular calcium rise in both neuronal and non-neuronal DRG cells (Figure 3A-C). Non-neuronal cells, satellite cells or microglia, were easily distinguished from neurons by their size, morphology and absence of dendritic processes (Figure 3A).
Cells and spinal cord slices were loaded with Fluo4-AM (4 μM, 30 min) in an oxygenated chamber (5% CO2/95% O2). DRG cells and spinal cord slices were washed in PBS and ACSF respectively and placed in a chamber mounted on the stage of a fluorescent microscope (Olympus). […] For each time-lapse image, the fluorescence intensity (F) was averaged over the soma area. Changes in fluorescence (ΔF) were measured as relative changes from baseline fluorescence (F0) and expressed as: […]

The test system of series [5] is neuronal cells in spinal cord slices from CCI rats. In words: Calcium imaging of neurons in spinal cord slices from CCI rats. Format: cell-based, rat. As to conditions: bath application of 50 nM CCL2; n = 5. On the procedure: (§1) To evaluate this we used spinal cord slices from CCI rats and evaluated if neuronal and non-neuronal cell types were sensitive to CCL2. For these recordings, calcium imaging acquisition was focused on lamina I of the dorsal horn. […] In this region, non-neuronal cells included astrocytes, microglia and other types of glial cells.
(§2) Spinal cord slices from L4 to L6 region were prepared from CCI animals, 4 to 19 days post-surgery, following guidelines by Wan and colleagues. In order to prevent excess bleeding, 20 uL of Xylocaine was injected intramuscularly at several sites on both sides of the spinal cord. Under deep anaesthesia a laminectomy (T11 to L5) was performed. Once exposed, the spinal cord was isolated and submerged in oxygenated ice-cold solution containing (in mM): 250 sucrose, 5 KCl, 2 MgSO4, 1.25 NaH2PO4, 26 NaHCO3 and 10 glucose.

The test system of series [6] is non-neuronal cells in spinal cord slices from CCI rats. In words: Calcium imaging of non-neuronal cells in spinal cord slices from CCI rats. As to conditions: bath application of 50 nM CCL2; n = 4. Format: cell-based, rat. On the procedure: as §1, §2
The subject of series [7] is CCI rats. In words: Thermal (heat) hyperalgesia (paw withdrawal latency) in CCI neuropathic rats. In kind it is in vivo, rat. As to conditions: p.o., tested 1 h after dosing.
Description: Chronic nerve constriction injury (CCI) was induced as described previously [38] in male Sprague-Dawley rats weighing 125-150 g at the time of surgery. Briefly, under isoflurane anaesthesia, a small incision was made 0.5 cm below the pelvis, and the biceps femoris and the gluteus superficialis (left side) were separated. The sciatic nerve was exposed, isolated, and four loose ligatures (4-0 chromic gut) with 1 mm spacing were placed around it. The nerve was placed back in its natural position and the incision sealed with tissue adhesive (VetbondTM). The animals were allowed to recover for 7-10 days before conducting any behavioural testing. Animals that were not gaining weight or were showing clinical signs of distress (e.g. paralysis, self-mutilation, extensive alopecia) were not included in this study.
Animals were brought to the laboratory 24 h prior to behavioural testing for acclimatization. […] Paw withdrawal latencies were calculated as the mean of two trials conducted with 5 min intervals between measures.
CCI rats and their corresponding naïve controls were used throughout this study. […] In order to assess behavioural pathology, baseline hyperalgesia was determined 1-2 days before pharmacological testing. […] The percentage of anti-hyperalgesia for each rat was calculated according to the following equation: % anti-hyperalgesia = [(value-vehicle)/(naïve-vehicle)]*100.
For series [8], the system named is rats. In words: Side effects during behavioural studies (locomotor activity assay, muscle tone, overt signs). In kind it is in vivo, rat. To be noted: highest dose (pregabalin 100 mg/kg p.o.); data not shown.
The mark [9] stands for this setting: Additional file 1 Figure S1, average of 3 independent experiments.

For the compound `COc1ccc2c(c1)CC[C@@H]1[C@@H]2CC[C@]2(C)[C@@H](NCCCCCCN3C(=O)C=CC3=O)CC[C@@H]12` [U73122], in series [1], the “effect on CCL2-evoked calcium mobilization in DRG neurons” value was “significant block of the calcium rise peak; also recorded: significantly blocked”.
As for “mCCL2: mouse CC chemokine ligand 2 (monocyte chemoattractant protein-1), CCR2 agonist, purchased from R&D Systems”, the EC50 amounted to 500 pM in series [2] (setting [9]) and 1000 pM in series [2] (Figure 1A).
Regarding “rCCL2: rat CC chemokine ligand 2 (monocyte chemoattractant protein-1), CCR2 agonist, purchased from R&D Systems”, the EC50 in series [2] (setting [9]) stood at 800 pM. In addition, in series [3] (CCL2 10 nM, local application 1 min, n = 3), the “increase in evoked firing compared to vehicle” value turned out to be 29 ± 9%. In addition, the “increase in evoked firing (facilitated neuronal firing)” value in series [3] (rCCL2 100 nM, n = 6) is on record as 46 ± 13%. Moreover, the “calcium response in DRG cells from naive rats” value in series [4] is reported as “did not evoke any response”. The “mean calcium rise peak in neurons” value in series [5] is reported as 142.5 ± 87.8%. Besides, in series [6], the “calcium response in non-neuronal cells” value is 57.8 ± 42.3%.
As for `CC(C)C[C@H](CN)CC(=O)O` [Pregabalin], the “potency in reducing heat hyperalgesia, fold lower than AZ889” value in series [7] was found to be 10 fold. For the same compound, in series [8], the muscle tone result is “clear decrease in muscle tone”.
